Source: patent US20240109881A1, “Heteroaryl Compounds as Ligand Directed Degraders of IRAK4” (Bristol-Myers Squibb Company, priority 2022, published 2024)
Structures can show the parent of a compound that is named as a salt. Where two headings read alike, the source gives them in different places.

Experiments:
IRAK4 [1] = target: T1, IRAK4 (Homo sapiens, UniProt Q9NWZ3); test: LVL THP1 HTRF (THP1 Homogeneous Time Resolved Fluorescence); format: cell-based; conditions: THP1 cells, 18 h incubation with compound; for DC50: read-out: LVL THP1 HTRF EC50
T1 construct: endogenous in cells; host or cells: THP-1 cells
T1 sequence (Q9NWZ3 1-460): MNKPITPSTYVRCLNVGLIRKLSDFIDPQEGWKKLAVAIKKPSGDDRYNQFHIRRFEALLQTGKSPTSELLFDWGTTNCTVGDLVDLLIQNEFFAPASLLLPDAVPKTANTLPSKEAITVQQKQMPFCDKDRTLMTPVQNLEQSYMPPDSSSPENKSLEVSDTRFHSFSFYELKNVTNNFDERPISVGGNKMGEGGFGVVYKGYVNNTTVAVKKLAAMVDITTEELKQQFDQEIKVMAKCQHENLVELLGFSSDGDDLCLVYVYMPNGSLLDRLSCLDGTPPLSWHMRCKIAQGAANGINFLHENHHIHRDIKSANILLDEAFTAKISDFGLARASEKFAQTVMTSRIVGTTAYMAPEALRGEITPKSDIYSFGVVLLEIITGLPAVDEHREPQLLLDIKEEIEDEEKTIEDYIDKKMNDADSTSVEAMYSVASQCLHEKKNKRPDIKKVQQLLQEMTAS
Outline: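 IRAK4 HTRF read-out (665/615 nm ratio, anti-IRAK4 d2 acceptor and K donor, 18 h dark incubation at room temperature) on lysates of THP-1 cells. Cells were treated 18 h at 37° C. with 20 nL compound in DMSO, in colorless RPMI with 10% FBS, with a duplicate CTG plate.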

[2] = Pharmacokinetic studies in mice (plasma PK, IV and PO); format: in vivo; conditions: female C57B16 mice; for FPO: PO 3.0 mg/kg vs IV 0.50 mg/kg, dose-normalized AUCLAST; for clearance: read-out: Clp; for Vd: read-out: VSS
Description: Due to the higher molecular weight and lipophilicity, targeted protein degraders generally occupy a physiochemical property space that is beyond Lipinski's rule of 5 and as consequence are expected to have poor oral bioavailability and overall pharmacokinetic properties. […] The plasma pharmacokinetics (PK) of P-394, P-155, P-139, and P-160 were characterized in female C57B16 mice following intravenous (IV; 0.5 mg/kg) administration. Plasma from the tail vein was withdrawn in composite fashion: one group of mice (n=3) provided samples at 2 min, 30 min, 2 h, and 8 h, while another group (n=3) provided samples at 15 min, 1 h, 4 h, and 24 h. The concentrations of test article in these samples were measured using reverse-phase LC-MS-MS and then plotted as a function of time. The resulting concentration-time data was processed using noncompartmental analysis for the calculation of clearance (Cl), volume of distribution at steady state (Vss), half-life, mean residence time (MRT) and area under the time curve (AUC).
Similarly, the PK was characterized following oral (PO; 3 mg/kg) administration. Again, plasma from the tail vein was withdrawn in composite fashion: one group of mice (n=3) provided samples at 15 min, 1 h, 4 h, and 8 h, while another group (n=3) provided samples at […], 2 h, and 24 h. Oral bioavailability (FPO) was calculated by comparing the results of the studies described, dividing the dose-normalized AUCLAST,PO by the dose-normalized AUCLAST,IV.

IRAK4 [3] = target: T1, IRAK4; test: ALE THP1 HTRF (Advanced Lipoxidation End Product THP1 Homogeneous Time Resolved Fluorescence); format: cell-based; conditions: THP1 cells
Outline: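 HTRF read-out of IRAK4 protein: anti-IRAK4 d2 and cryptate antibody pair added to BCA-normalized lysates, overnight dark room-temperature incubation. Lysis ran 45 min with shaking at room temperature; buffer, cryptate-only and negative controls included.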

[4] = mouse, 0.5 mg/kg, IV 0.50 mg/kg, plasma
[5] = mouse, 0.5 mg/kg, plasma, IV 0.50 mg/kg

LVL THP1 HTRF YMIN (IRAK4 [1]) [%] | DC50 (IRAK4 [1]) [nM] | FPO [2] [%] | AUC(0-t) [2, 4] [µM·h] | MRT [2, 4] [h] | half-life [2, 4] [h] | clearance [2, 4] [mL/min/kg] | Vd [2, 4] [L/kg] | AUC(0-t) ([2]; mouse, PO 3.0 mg/kg, plasma) [µM·h] | Cmax ([2]; mouse, PO 3.0 mg/kg, plasma) [nM] | Tmax ([2]; mouse, PO 3.0 mg/kg, plasma) [h] | ALE THP1 HTRF YMIN (IRAK4 [3]) [%] | EC50 (IRAK4 [3]) [nM] | Compound | further results
1.7 | 11 | 39 | 1.06 | 4.59 | 2.98 | 10.6 | 2.91 | 2.47 | 380 | 2 | 5.6 | 1 | C[C@H](C#N)Nc1cc(-n2ncc3cc(C#N)cnc32)ncc1-n1cc([C@H]2CC[C@H](CCN3CCN(c4ccc(C5CCC(=O)NC5=O)cc4)CC3)CC2)nn1 (stereo partly drawn) [P-139, 1-(4-(((R)-1-cyanoethyl)amino)-5-(4-((1r,4R)-4-(2-(4-(4-(2,6-dioxopiperidin-3-yl)phenyl)piperazin-1-yl)ethyl)cyclohexyl)-1H-1,2,3-triazol-1-yl)pyridin-2-yl)-1H-pyrazolo[3,4-b]pyridine-5-carbonitrile, formic acid salt] | 
0.9 | 6 | ~100 | 2.01 | 3.3 | 4.1 | 5.45 | 1.08 | 13.7 | 3010 | 2 | 10.2 | 2 | C[C@H](C#N)Nc1cc(-n2ncc3cc(C#N)cnc32)ncc1-n1cc(C2CCC(CCN3CCN(c4ccc(C5CCC(=O)NC5=O)cc4)[C@H](C)C3)CC2)nn1 (some centres unmarked) [P-155] | 
0.7 | 4 | 31.6 | 0.739 | 3.8 | 3.2 | 14.9 | 3.37 | 1.4 | 245 | 2 | 5.8 | 4 | C[C@H](C#N)Nc1cc(-n2ncc3cc(C#N)c(N)nc32)ncc1-n1cc([C@H]2CC[C@H](CCN3CCN(c4ccc(C5CCC(=O)NC5=O)cc4)CC3)CC2)nn1 (stereo partly drawn) [P-160, 6-amino-1-(4-(((R)-1-cyanoethyl)amino)-5-(4-((1r,4R)-4-(2-(4-(4-(2,6-dioxopiperidin-3-yl)phenyl)piperazin-1-yl)ethyl)cyclohexyl)-1H-1,2,3-triazol-1-yl)pyridin-2-yl)-1H-pyrazolo[3,4-b]pyridine-5-carbonitrile, TFA] | 
6.3 | 415 |  |  |  |  |  |  |  |  |  | 9.4 | 5 | C[C@H](C#N)Nc1cc(-n2ncc3cc(C#N)cnc32)ncc1C(=O)N[C@H]1CC[C@H](CCN2CCN(c3ccc(C4CCC(=O)NC4=O)cc3)C3(CCC3)C2)CC1 (some centres unmarked) [P-182] | 
5.7 | 29 |  |  |  |  |  |  |  |  |  | 13.9 | 34 | C[C@H](C#N)Nc1cc(-n2ncc3cc(C#N)c(N)nc32)ncc1C(=O)N[C@H]1CC[C@H](CCN2CCN(c3ccc(C4CCC(=O)NC4=O)cc3)C(C(F)(F)F)C2)CC1 (some centres unmarked) [P-186] | 
1.4 | 6 |  |  |  |  |  |  |  |  |  |  |  | CC[C@@H]1CN(CC[C@H]2CC[C@H](c3cn(-c4cnc(-n5ncc6cc(C#N)cnc65)cc4N[C@H](C)C#N)nn3)CC2)CCN1c1ccc(N2CCC(=O)NC2=O)cn1 [P-394, 1-(4-(((R)-1-cyanoethyl)amino)-5-(4-((1R,4R)-4-(2-((R)-4-(5-(2,4-dioxotetrahydropyrimidin-1(2H)-yl)pyridin-2-yl)-3-ethylpiperazin-1-yl)ethyl)cyclohexyl)-1H-1,2,3-triazol-1-yl)pyridin-2-yl)-1H-pyrazolo[3,4-b]pyridine-5-carbonitrile] | AUC(0-t) [2, 5]: 0.884 µM·h; MRT [2, 5]: 2.2 h; half-life [2, 5]: 1.7 h; clearance [2, 5]: 11.8 mL/min/kg; Vd [2, 5]: 1.58 L/kg; bioavailability ([2]; mouse, plasma, PO 3.00 mg/kg vs IV 0.50 mg/kg, dose-normalized AUCLAST ratio, read-out: FPO (oral bioavailability)): 26.6%; AUC(0-t) ([2]; mouse, plasma, PO 3.00 mg/kg): 1.41 µM·h; Cmax ([2]; mouse, plasma, PO 3.00 mg/kg): 559 nM; Tmax ([2]; mouse, plasma, PO 3.00 mg/kg): 0.25 h

Compound | LVL THP1 HTRF YMIN (IRAK4 [1]) [%] | DC50 (IRAK4 [1]) [nM] | FPO [2] [%] | AUC(0-t) [2, 4] [µM·h] | MRT [2, 4] [h] | half-life [2, 4] [h] | clearance [2, 4] [mL/min/kg] | Vd [2, 4] [L/kg] | AUC(0-t) ([2]; mouse, PO 3.0 mg/kg, plasma) [µM·h] | Cmax ([2]; mouse, PO 3.0 mg/kg, plasma) [nM] | Tmax ([2]; mouse, PO 3.0 mg/kg, plasma) [h] | ALE THP1 HTRF YMIN (IRAK4 [3]) [%] | EC50 (IRAK4 [3]) [nM] | further results
C[C@H](C#N)Nc1cc(-n2ncc3cc(C#N)cnc32)ncc1C(=O)N[C@H]1CC[C@H](CCN2[C@@H]3C[C@H]2CN(c2ccc(C4CCC(=O)NC4=O)cc2)C3)CC1 (some centres unmarked) [P-183] | <0.5 | 12 |  |  |  |  |  |  |  |  |  | 27.9 | 63 | 
